Measured values taken from US20230041563A1, “N-(1,3,4-OXADIAZOL-2-YL)ARYLCARBOXAMIDES OR SALTS THEREOF, PREPARATION METHODS, HERBICIDAL COMPOSITIONS AND USES THEREOF” (priority 2018, published 2023).
Read-outs that look alike come from different tables or passages of the source.

Experiments:
Assay type in all cases: in vivo
Echinochloa crusgalli = assay: Weeding effect in post-emergence stage (greenhouse pot spray); details: for Echinochloa crusgah (activity level): Table 2, dose 500 g a.i./ha
Text: (§1) The activity level criteria for plant damage (i.e., growth control rate) are as follows:
(§2) The above growth control rates are fresh weight control rates.
(§3) Experiment on weeding effect in post-emergence stage: monocotyledonous and dicotyledonous weed seeds (Descurainia sophia, Capsella bursa-pastoris, Abutilon theophrasti, Galium aparine, Stellaria media, Lithospermum arvense, rorippa indica, Alopecurus aequalis, Beckmannia syzigachne, Sclerochloa dura, Phleum paniculatum, Bromus japonicus, Aegilops tauschii, Phalaris arundinacea, Amaranthus retroflexus, Chenopodiaceae, Commelina communis, Sonchus arvensis, convolvulus arvensis, Cirsium setosum, Solanum nigrum, Acalypha australis, Digitaria sanguinalis, Echinochloa crusgalli, Setaria viridis, Setaria glauca, Leptochloa chinensis, Monochoria vaginalis, Sagittaria trifolia, Scirpus juncoides, Cyperus rotundus, Cyperus iria, Cyperus difformis, Fimbristylis, Portulaca oleracea, Xanthium sibiricum, Pharbitis nil) and major crop seeds (wheat, corn, rice, soybean, cotton, oilseed rape, millet, sorghum, potato, sesame, ricinus) were placed in plastic pots filled with soil, then covered with 0.5-2 cm of soil, allowed to grow in a good greenhouse environment. After 2 weeks of sowing, the test plants were treated in the 2 to 3 leaf stage. The tested compounds of the present invention were respectively dissolved in acetone, then added with Tween 80 and 1.5 liter/ha of emulsifiable concentrate of methyl oleate as synergist, diluted with a certain amount of water to obtain a solution with a certain concentration, and sprayed with a spray tower onto the plants. After the application, the plants were cultured for 3 weeks in the greenhouse, and then the experimental results of the weeding were counted. […]

Digitaria sanguinalis = assay: as above; details: for Digitaria sanguinalis (activity level): Table 2, dose 500 g a.i./ha
Text: as §1, §2, §3

Setaria viridis = assay: as above
Text: as §1, §2, §3

Abutilon theophrasti = assay: as above; details: Table 2, dose 500 g a.i./ha
Text: as §1, §2, §3

weeds = assay: Actual control effects and combined effects of mixtures of active ingredients (i) and (ii), stem-leaf treatment, Gowing method; details: 20 days; for pest or weed control at 27 g/ha: (ii) 1.8 g a.i./mu
Procedure: According to the actual control effect and the property of the herbicides, the balance of the formula and other factors, the optimal ratio was determined. In the calculation formula: X represents the fresh weight inhibition rate when the active ingredient (i) is used in an amount of P; and Y represents the fresh weight inhibition rate when the active ingredient (ii) is used in an amount of Q. The statistical results are shown in Tables 9-11 below.

[1] = 480 h, Cyperus difformis, read-out: Control effect of (ii) alone at corresponding dose

## O=C(Nc1nnco1)c1ccc(C(F)(F)F)c([S@@+]([O-])CCC(F)(F)F)c1F [3-52 (R-configuration)]
Echinochloa crusgalli; Table 3, dose 125 g a.i./ha
  Echinochloa crusgali (activity level): 5 (Level 5: growth control rate is above 85%)
Digitaria sanguinalis; Table 3, dose 125 g a.i./ha
  Digitaria sanguinahs (activity level): 5 (Level 5: growth control rate is above 85%)
Setaria viridis; Table 3, dose 125 g a.i./ha
  Setaria viridis (activity level): 5 (Level 5: growth control rate is above 85%)

## CC[S@+]([O-])c1c(C(F)(F)F)ccc(C(=O)Nc2nnco2)c1F [3-5 (R-configuration)]
Echinochloa crusgalli; Table 3, dose 120 g a.i./ha
  Echinochloa crusgali (activity level): 5 (Level 5: growth control rate is above 85%)
Digitaria sanguinalis; Table 3, dose 120 g a.i./ha
  Digitaria sanguinahs (activity level): 5 (Level 5: growth control rate is above 85%)
Setaria viridis; Table 3, dose 120 g a.i./ha
  Setaria viridis (activity level): 5 (Level 5: growth control rate is above 85%)

## Cc1nnc(NC(=O)c2ccc(C(F)(F)F)c(S(=O)(=O)C(C)(C)C)c2F)o1 [Compound 1-138]
Echinochloa crusgalli
  Echinochloa crusgah (activity level): 5 (Level 5: growth control rate is above 85%)
Digitaria sanguinalis
  Digitaria sanguinalis (activity level): 5 (Level 5: growth control rate is above 85%)

## Cc1nnc(NC(=O)c2ccc(C(F)(F)F)c([S@@+]([O-])CCC#N)c2F)o1 [1-427 (R-configuration)]
Echinochloa crusgalli; Table 3, dose 500 g a.i./ha
  Echinochloa crusgali (activity level): 5 (Level 5: growth control rate is above 85%)
Digitaria sanguinalis; Table 3, dose 500 g a.i./ha
  Digitaria sanguinahs (activity level): 5 (Level 5: growth control rate is above 85%)
Setaria viridis; Table 3, dose 500 g a.i./ha
  Setaria viridis (activity level): 5 (Level 5: growth control rate is above 85%)

## COCC[S@+]([O-])c1c(C(F)(F)F)ccc(C(=O)Nc2nnco2)c1F [3-57 (R-configuration)]
Echinochloa crusgalli; Table 3, dose 125 g a.i./ha
  Echinochloa crusgali (activity level): 5 (Level 5: growth control rate is above 85%)
Digitaria sanguinalis; Table 3, dose 125 g a.i./ha
  Digitaria sanguinahs (activity level): 5 (Level 5: growth control rate is above 85%)
Setaria viridis; Table 3, dose 125 g a.i./ha
  Setaria viridis (activity level): 5 (Level 5: growth control rate is above 85%)

## Cc1nnc(NC(=O)c2ccc(C(F)(F)F)c(SCCF)c2F)o1 [Compound 1-48]
Echinochloa crusgalli
  Echinochloa crusgah (activity level): 5 (Level 5: growth control rate is above 85%)
Digitaria sanguinalis
  Digitaria sanguinalis (activity level): 5 (Level 5: growth control rate is above 85%)

## CCC[S@@+]([O-])c1c(C(F)(F)F)ccc(C(=O)Nc2nnco2)c1F [3-8 (R-configuration)]
Echinochloa crusgalli; Table 3, dose 60 g a.i./ha
  Echinochloa crusgali (activity level): 5 (Level 5: growth control rate is above 85%)
Digitaria sanguinalis; Table 3, dose 60 g a.i./ha
  Digitaria sanguinahs (activity level): 5 (Level 5: growth control rate is above 85%)
Setaria viridis; Table 3, dose 60 g a.i./ha
  Setaria viridis (activity level): 5 (Level 5: growth control rate is above 85%)

## COCCC[S@@+]([O-])c1c(C(F)(F)F)ccc(C(=O)Nc2nnc(C)o2)c1F [1-448 (R-configuration)]
Echinochloa crusgalli; Table 3, dose 500 g a.i./ha
  Echinochloa crusgali (activity level): 5 (Level 5: growth control rate is above 85%)
Digitaria sanguinalis; Table 3, dose 500 g a.i./ha
  Digitaria sanguinahs (activity level): 5 (Level 5: growth control rate is above 85%)
Setaria viridis; Table 3, dose 500 g a.i./ha
  Setaria viridis (activity level): 5 (Level 5: growth control rate is above 85%)

## CCOCC[S@+]([O-])c1c(C(F)(F)F)ccc(C(=O)Nc2nnc(C)o2)c1F [1-446 (R-configuration)]
Echinochloa crusgalli; Table 3, dose 500 g a.i./ha
  Echinochloa crusgali (activity level): 5 (Level 5: growth control rate is above 85%)
Digitaria sanguinalis; Table 3, dose 500 g a.i./ha
  Digitaria sanguinahs (activity level): 5 (Level 5: growth control rate is above 85%)
Setaria viridis; Table 3, dose 500 g a.i./ha
  Setaria viridis (activity level): 5 (Level 5: growth control rate is above 85%)

## CC(=O)Sc1c(C(F)(F)F)ccc(C(=O)Nc2nnc(C)o2)c1F [Compound 1-70]
Echinochloa crusgalli
  Echinochloa crusgah (activity level): 5 (Level 5: growth control rate is above 85%)

## CCOC[S+]([O-])c1c(C(F)(F)F)ccc(C(=O)Nc2nnc(C)o2)c1F (centres unmarked) [Compound 1-444]
Echinochloa crusgalli
  Echinochloa crusgah (activity level): 5 (Level 5: growth control rate is above 85%)

## Cc1nnc(NC(=O)c2ccc(C(F)(F)F)c([S+]([O-])CCO)c2F)o1 (centres unmarked) [Compound 1-429]
Abutilon theophrasti
  Abutilion theophrasti (activity level): 5 (Level 5: growth control rate is above 85%)
Echinochloa crusgalli
  Echinochloa crusgah (activity level): 5 (Level 5: growth control rate is above 85%)
Digitaria sanguinalis
  Digitaria sanguinalis (activity level): 5 (Level 5: growth control rate is above 85%)

## Cc1nnc(NC(=O)c2ccc(C(F)(F)F)c([S+]([O-])C3CCCCC3)c2F)o1 (centres unmarked) [Compound 1-394]
Echinochloa crusgalli
  Echinochloa crusgah (activity level): 5 (Level 5: growth control rate is above 85%)

## Cc1nnc(NC(=O)c2ccc(C(F)(F)F)c([S+]([O-])CCCO)c2F)o1 (centres unmarked) [Compound 1-430]
Abutilon theophrasti
  Abutilion theophrasti (activity level): 5 (Level 5: growth control rate is above 85%)
Echinochloa crusgalli
  Echinochloa crusgah (activity level): 5 (Level 5: growth control rate is above 85%)
Digitaria sanguinalis
  Digitaria sanguinalis (activity level): 5 (Level 5: growth control rate is above 85%)

## CC(C)C[S+]([O-])c1c(C(F)(F)F)ccc(C(=O)Nc2nnco2)c1F (centres unmarked) [Compound 3-20]
Echinochloa crusgalli
  Echinochloa crusgah (activity level): 5 (Level 5: growth control rate is above 85%)

## C#CCSc1c(C(F)(F)F)ccc(C(=O)Nc2nnc(C)o2)c1F [Compound 1-43]
Echinochloa crusgalli
  Echinochloa crusgah (activity level): 5 (Level 5: growth control rate is above 85%)

## Cc1nnc(NC(=O)c2ccc(C(F)(F)F)c(SC#N)c2F)o1 [Compound 1-68]
Echinochloa crusgalli
  Echinochloa crusgah (activity level): 5 (Level 5: growth control rate is above 85%)

## CC(C)=C1OC(=O)N(c2cc(OC3CCCC3)c(Cl)cc2F)C1=O [Pentoxazone]
weeds; Monochoria vaginalis, (ii) 10 g a.i./mu
  Control effect of (ii) alone at corresponding dose: 43.6%
weeds; Pontederia vaginalis, 480 h, Monochoria vaginalis, (ii) 0.5 g a.i./mu, read-out: Control effect of (ii) alone at corresponding dose
  pest or weed control at […]: 6.4%
weeds; Pontederia vaginalis, 480 h, Monochoria vaginalis, (ii) 10 g a.i./mu, stem-leaf treatment, read-out: Control effect of (ii) alone at corresponding dose
  pest or weed control at 150 g/ha: 43.6%

## COc1c(Cl)ccc(Cl)c1C(=O)O [Dicamba]
weeds; Monochoria vaginalis, (ii) 3 g a.i./mu
  Control effect of (ii) alone at corresponding dose: 50.9%
weeds; Monochoria vaginalis, (ii) 5 g a.i./mu
  Control effect of (ii) alone at corresponding dose: 70.2%
weeds; Pontederia vaginalis, 480 h, Monochoria vaginalis, (ii) 3 g a.i./mu, stem-leaf treatment, read-out: Control effect of (ii) alone at corresponding dose
  pest or weed control at 45 g/ha: 50.9%
weeds; Pontederia vaginalis, 480 h, Monochoria vaginalis, (ii) 5 g a.i./mu, stem-leaf treatment, read-out: Control effect of (ii) alone at corresponding dose
  pest or weed control at 75 g/ha: 70.2%

## CCC(CC)Nc1c([N+](=O)[O-])cc(C)c(C)c1[N+](=O)[O-] [Pendimethalin]
weeds; [1]
  pest or weed control at 27 g/ha: 6.3%
weeds; 480 h, Cyperus difformis, (ii) 30 g a.i./mu, stem-leaf treatment, read-out: Control effect of (ii) alone at corresponding dose
  pest or weed control at 450 g/ha: 40.3%
weeds; Cyperus difformis, (ii) 30 g a.i./mu
  Control effect of (ii) alone at corresponding dose: 40.3%

## Cn1[nH]c(C2CC2)c(C(=O)c2ccc(C(F)(F)F)c(N3CCCCC3=O)c2Cl)c1=O [Huanbifucaotong]
weeds; Digitaria sanguinalis, (ii) 3 g a.i./mu, stem-leaf treatment
  Control effect of (ii) alone at corresponding dose: 6.2%
weeds; Leptochloa chinensis, (ii) 0.5 g a.i./mu
  Control effect of (ii) alone at corresponding dose: 9.2%
weeds; Leptochloa chinensis, (ii) 0.5 g a.i./mu, stem-leaf treatment
  Control effect of (ii) alone at corresponding dose: 9.2%
weeds; Leptochloa chinensis, (ii) 15 g a.i./mu
  Control effect of (ii) alone at corresponding dose: 76.2%

## Cc1nnc(NC(=O)c2ccc(C(F)(F)F)c(SCC#N)c2F)o1 [Compound 1-69]
Echinochloa crusgalli
  Echinochloa crusgah (activity level): 5 (Level 5: growth control rate is above 85%)

## CCCCCCCCSC(=O)Oc1cc(Cl)nnc1-c1ccccc1 [Pyridate]
weeds; [1]
  pest or weed control at 27 g/ha: 12.9%
weeds; 480 h, Cyperus difformis, (ii) 15 g a.i./mu, stem-leaf treatment, read-out: Control effect of (ii) alone at corresponding dose
  pest or weed control at […]: 53.2%
weeds; Cyperus difformis, (ii) 15 g a.i./mu
  Control effect of (ii) alone at corresponding dose: 53.2%

## Oxadiargyl
weeds; Echinochloa phyllopogon, (ii) 0.6 g a.i./mu
  Control effect of (ii) alone at corresponding dose: 3.4%
weeds; Echinochloa phyllopogon, (ii) 0.6 g a.i./mu, stem-leaf treatment
  Control effect of (ii) alone at corresponding dose: 3.4%
weeds; Echinochloa phyllopogon, (ii) 15 g a.i./mu
  Control effect of (ii) alone at corresponding dose: 35.3%
weeds; Echinochloa phyllopogon, (ii) 15 g a.i./mu, stem-leaf treatment
  Control effect of (ii) alone at corresponding dose: 35.3%
